{"source": "patent US7722863B2", "about": "“Use of granzyme b as an hsp70/hsp70 peptide dependent inducer of apoptosis in tumor cells” (Multimmune GmbH, priority 2002, dated 2010)", "key": {"[1]": {"system": "CX− tumor cells", "experiment": "Cytochrome c release, quantitative immunoassay", "format": "cell-based, human", "settings": "camptothecin 4 μg/ml or granzyme B 6 ng/ml, 24 h", "protocol": "(§1) Cytochrome c release: Cytochrome c release was determined using a quantitative immunoassay; (DCDCO, R&D Systems, Wiesbaden, Germany). Briefly, either untreated, camptothecin (4 μg/ml) or granzyme B (6 ng/ml) treated CX+ and CX− cells (1.5×10^6/ml) were washed in PBS and treated with lysis buffer for 1 h at room temperature. Following centrifugation at 1,000 g for 15 min supernatants were removed and 200 μl of a 1:100, 1:250, and a 1:500 dilution was used for a sandwich ELISA. Following incubation with substrate solution in the dark for 30 min the reaction was stopped. The optical density of each well was determined on an ELISA reader at 450 nm. The amount of cytochrome c was determined according to a calibration curve.\n(§2) As an additional test for apoptotic cell death, cytochrome c release was measured following incubation of CX+ and CX− cells with granzyme B for 24 h. As summarized in Table I, following incubation with granzyme B (6 ng/ml) for 24 h, cytochrome c concentration was elevated from 0.382 mg/ml to 0.690 mg/ml (1.8-fold) in CX+ cells. […] It was propose that the trigger of apoptosis by granzyme B is mediated via the extracellular exposed Hsp70 epitope TKD."}, "[2]": {"system": "CX+ tumor cells", "experiment": "Cytochrome c release, quantitative immunoassay", "format": "cell-based, human", "settings": "camptothecin 4 μg/ml or granzyme B 6 ng/ml, 24 h", "protocol": "as §1, §2"}, "[3]": {"system": "Hsp70 membrane-positive CX+ cells", "experiment": "Annexin V-FITC apoptosis assay (flow cytometry)", "format": "cell-based, human", "settings": "camptothecin 4 μg/ml or granzyme B 6 ng/ml; for fold increase of Annexin V-FITC positively stained CX+ cells: versus untreated", "protocol": "(§3) Exponentially growing tumor cells (day 1 after cell passage) were used for granzyme B, camptothecin treatment and as targets in cytotoxicity assays.\n(§4) Stock solutions of camptothecin (4 mg/ml, Sigma, Munich, Germany) were diluted in DMSO and stored at 4° C. in the dark. Granzyme B (6 ng/ml, Hölzel Diagnostics, Cologne, Germany) solutions were freshly prepared directly before usage. Exponentially growing cells (0.5-1.5×10^6/ml) were incubated either with camptothecin at a final concentration of 4 μg/ml or with purified, enzymatically active granzyme B (10 ng/ml, 1 μg/ml, 2 μg/ml; 4 μg/ml) (Shi et. al. (2000) Methods in Enzymology 322, 125) for 10 min, and 30 min either at 4° C. or at 37° C. After washing in RPMI-1640 medium binding and uptake was determined in nonpermeabilized and permeabilized tumor cells by flow cytometry and fluorescence microscopy on a Axioscop 25 scanning microscope (Zeiss, Jena, Germany) equipped with a 40× objective and standard filters. Images were treated by multiplicative shading correction using the software Axiovison (Zeiss Vison, Jena, Germany). Granzyme B was visualized in red by using the HC2-PE antibody.\n(§5) Apoptotic Cell Death was Determined after Incubation of Tumor Cells with 6 ng/ml Granzyme B for 4 h, 12 h, and 24 h at 37° C. and Washing in RPMI-1640 Medium by Different Apoptosis Assays, as Described Below. Apoptosis Assays\n(§6) Annexin V-FITC staining: Briefly, cells were washed twice in Hepes buffer containing 5 mM CaCl2 and incubated with Annexin V-FITC (Roche) for 10 min at room temperature. Annexin V-FITC positively stained cells were measured on a FACSCalibur flow cytometer (Becton Dickinson, Heidelberg, Germany).\n(§7) The preceding findings posed the question whether purified granzyme B can induce apoptosis of tumor cells that present Hsp70 on their cell surface. […] As a positive control for apoptosis all cell types were incubated with the topoisomerase inhibitor camptothecin at a concentration of 4 μg/ml. Apoptosis was determined by Annexin V-FITC staining measured by FACS (FACSCalibur, Becton Dickinson, Heidelberg, Germany), DAPI staining and mitochondrial cytochrome c release. Apoptosis was not detected in CX+ and CX− cells incubated with camptothecin (cam) or granzyme B (grB) for 4 h incubation (FIG. 3A). […] It appeared that the colon carcinoma sublines CX+/CX− are better protected towards a camptothecin-mediated cell death as compared to the pancreas carcinoma sublines Colo+/Colo−."}, "[4]": {"system": "Hsp70 membrane-positive Colo+ cells", "experiment": "Annexin V-FITC apoptosis assay (flow cytometry)", "format": "cell-based, human", "settings": "12 h and 24 h; camptothecin 4 μg/ml", "protocol": "as §3, §4, §5, §6, §7"}, "[5]": {"system": "Hsp70 membrane-negative CX− cells", "experiment": "Annexin V-FITC apoptosis assay (flow cytometry)", "format": "cell-based, human", "settings": "for apoptosis in CX− cells: camptothecin 4 μg/ml or granzyme B 6 ng/ml; for amount of Annexin V-FITC positively stained CX− cells / fold increase of Annexin V-FITC positively stained CX− cells: camptothecin 4 μg/ml; for fold increase of Annexin V-FITC positively stained CX− cells: versus untreated", "protocol": "as §3, §4, §5, §6, §7"}, "[6]": {"system": "Hsp70 membrane-negative Colo− cells", "experiment": "Annexin V-FITC apoptosis assay (flow cytometry)", "format": "cell-based, human", "settings": "12 h and 24 h; camptothecin 4 μg/ml or granzyme B 6 ng/ml", "protocol": "as §3, §4, §5, §6, §7"}, "[7]": {"system": "CX− tumor cells", "experiment": "DAPI staining of nuclear DNA fragmentation", "format": "cell-based, human", "settings": "24 h, camptothecin 4 μg/ml or granzyme B 6 ng/ml", "protocol": "(§8) DAPI-staining: Methanol/aceton fixed cells (0.1×10^6 cells/100 μl) were incubated with 0.5 μg/μl 4,6-diamino-2-phenylindole (DAPI) in PBS/glycerol (3:1), for 15 min in the dark. Following washing in PBS the cells were mounted with Fluorescent Mounting Medium (Dako, Glostrup, Denmark) and than analysed for fluorescence using a Zeiss model Axioscop 2 scanning microscope (Zeiss Jena, Germany) equipped with a 40× objective and standard filters. Apoptosis was visualized with DAPI-staining in 50 cells, each. Images were treated by multiplicative shading correction using software Axiovision (Zeiss Vision Jena, Germany)."}, "[8]": {"system": "Colo+ tumor cells", "experiment": "DAPI staining of nuclear DNA fragmentation", "format": "cell-based, human", "settings": "24 h, camptothecin 4 μg/ml or granzyme B 6 ng/ml", "protocol": "as §8"}, "[9]": {"system": "Colo− tumor cells", "experiment": "DAPI staining of nuclear DNA fragmentation", "format": "cell-based, human", "settings": "24 h, camptothecin 4 μg/ml or granzyme B 6 ng/ml", "protocol": "as §8"}, "[10]": {"system": "CX+ tumor cells", "experiment": "DAPI staining of nuclear DNA fragmentation", "format": "cell-based, human", "settings": "24 h, camptothecin 4 μg/ml or granzyme B 6 ng/ml", "protocol": "as §8"}, "[11]": {"system": "Hsp70 membrane-positive tumor target cells", "settings": "Hsp70-protein 10 to 50 μg/ml; cited from earlier work"}}, "data": [{"compound": "CC[C@@]1(O)C(=O)OCc2c1cc1n(c2=O)Cc2cc3ccccc3nc2-1", "note": "[camptothecin, reference compound]", "values": [{"measurement": "cytochrome c fold increase", "setting": "[1]; control 1.0", "value": 1.5, "unit": "fold"}, {"measurement": "cytochrome c", "setting": "[1]; mean of 4 experiments ± S.E., control 0.452 ± 0.02", "value": "0.672 ± 0.02", "unit": "mg/mL"}, {"measurement": "cytochrome c fold increase", "setting": "[2]; control 1.0", "value": 1.5, "unit": "fold"}, {"measurement": "cytochrome c", "setting": "[2]; mean of 4 experiments ± S.E., control 0.382 ± 0.02", "value": "0.555 ± 0.04", "unit": "mg/mL"}, {"measurement": "apoptosis in CX+ cells", "setting": "[3]; 4 h incubation", "value": "not detected"}, {"measurement": "amount of Annexin V-FITC positively stained CX+ cells", "setting": "[3]; 12 h, untreated 16.6%", "value": 28.0, "unit": "%"}, {"measurement": "fold increase of Annexin V-FITC positively stained CX+ cells", "setting": "[3]; 12 h", "value": 1.7, "unit": "fold"}, {"measurement": "apoptosis in CX+ cells", "setting": "[3]; 12 h and 24 h", "value": "underwent apoptosis"}, {"measurement": "amount of Annexin V-FITC positively stained CX+ cells", "setting": "[3]; 24 h, untreated 18%", "value": 39, "unit": "%"}, {"measurement": "fold increase of Annexin V-FITC positively stained CX+ cells", "setting": "[3]; 24 h", "value": 2.1, "unit": "fold"}, {"measurement": "apoptosis in Colo+ cells", "setting": "[4]", "value": "underwent apoptosis"}, {"measurement": "apoptosis in CX− cells", "setting": "[5]; 4 h incubation", "value": "not detected"}, {"measurement": "amount of Annexin V-FITC positively stained CX− cells", "setting": "[5]; 12 h, untreated 12.1%", "value": 19.8, "unit": "%"}, {"measurement": "fold increase of Annexin V-FITC positively stained CX− cells", "setting": "[5]; 12 h", "value": 1.6, "unit": "fold"}, {"measurement": "apoptosis in CX− cells", "setting": "[5]; 12 h and 24 h", "value": "underwent apoptosis"}, {"measurement": "amount of Annexin V-FITC positively stained CX− cells", "setting": "[5]; 24 h, untreated 11.9%", "value": 25.1, "unit": "%"}, {"measurement": "fold increase of Annexin V-FITC positively stained CX− cells", "setting": "[5]; 24 h", "value": 2.1, "unit": "fold"}, {"measurement": "apoptosis in Colo− cells", "setting": "[6]", "value": "underwent apoptosis"}, {"measurement": "nuclear DNA fragmentation (DAPI)", "setting": "[7]", "value": "exhibited nuclear fragmentation"}, {"measurement": "nuclear DNA fragmentation (DAPI)", "setting": "[8]", "value": "exhibited nuclear fragmentation"}, {"measurement": "nuclear DNA fragmentation (DAPI)", "setting": "[9]", "value": "exhibited nuclear fragmentation"}, {"measurement": "nuclear DNA fragmentation (DAPI)", "setting": "[10]", "value": "exhibited nuclear fragmentation"}]}, {"compound": "Hsp70-protein: recombinant human Hsp70-protein (Stressgen)", "values": [{"measurement": "cytolytic activity of NK cells against Hsp70 membrane-positive tumor target cells", "setting": "[11]", "value": "increased cytolytic activity"}]}]}
